Test results from patent US11065266B2, “Method of treating melanoma using an inhibitor of an atypical protein kinase C” (UNIVERSITY OF SOUTH FLORIDA, priority 2016, dated 2021).

Assays:
MeWo cells = assay: WST-1 assay for cell viability and cytotoxicity; assay type: cell-based, human; conditions: treated at IC50, 3 days
Protocol: (§1) Approximately 4×10^3 cells (PCS-200-013, SK-MEL-2 and MeWo) were cultured in a 96 well plate. […] This IC50 was obtained based on the cell viability counts in the previous experiments. Additional doses of sterile water or inhibitor were supplied every 24 h during 3 day incubation period. At the end of 3 day treatment, media were removed and fresh media (100 μL) were added with 4-[3-(4-iodophenyl)-2-(4-nitropheny))-2H-5-tetrazolio]-1,3-benzene disulfonate (WST-1) reagent (10 μL) to each well. The absorbance was measured at 450 nm for every 0.5 hour up to 3 hours using the Synergy HT microplate reader from Biotek (Winooski, Vt.).
WST-1 assay was performed to determine the in-vitro cytotoxicity of ACPD and DNDA on normal and malignant cell lines. Measured absorbance at 450 nm is directly proportional to the number of cells present. Cells produce a water soluble formazan with WST-1 as a result of their mitochondrial dehydrogenase activity. WST-1 assay is preferred over 3-(4,S-Dimethyl-2-thiazolyl)-2, 5-diphenyl-2Htetrazolium bromide (MTT) test since MTT needs to add acidic isopropanol to dissolve formazan which gives an additional toxicity to cells.

PKC-ζ = molecular target: T1, PKC-ζ (Homo sapiens, UniProt Q05513); conditions: at 10 μM; cited from earlier work
T1 sequence (Q05513 1-592): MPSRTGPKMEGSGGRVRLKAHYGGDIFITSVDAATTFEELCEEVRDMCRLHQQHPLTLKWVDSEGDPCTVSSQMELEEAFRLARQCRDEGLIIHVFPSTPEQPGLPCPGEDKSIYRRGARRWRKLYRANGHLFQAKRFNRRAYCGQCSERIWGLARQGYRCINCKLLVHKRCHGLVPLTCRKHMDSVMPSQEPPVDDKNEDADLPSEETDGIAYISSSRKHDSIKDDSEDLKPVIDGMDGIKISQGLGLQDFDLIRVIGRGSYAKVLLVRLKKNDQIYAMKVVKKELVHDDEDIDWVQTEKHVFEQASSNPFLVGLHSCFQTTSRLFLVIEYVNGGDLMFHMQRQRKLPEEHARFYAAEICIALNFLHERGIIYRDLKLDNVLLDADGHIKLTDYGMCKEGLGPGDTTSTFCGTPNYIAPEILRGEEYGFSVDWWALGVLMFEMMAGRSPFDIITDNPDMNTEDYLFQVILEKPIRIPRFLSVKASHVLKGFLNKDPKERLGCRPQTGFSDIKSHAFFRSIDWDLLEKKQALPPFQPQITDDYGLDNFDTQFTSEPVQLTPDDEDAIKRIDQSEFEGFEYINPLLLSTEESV

[1] = test system: malignant melanoma cells (SK-MEL-2 and MeWo); assay: WST-1 assay, ζ-Stat; assay type: cell-based, human; conditions: 2.5 μM
Protocol: as §1
Cell proliferation was measured using WST-1 assay for SK-MEL-2 (FIG. 16A) and MeWo (FIG. 16b). Absorbance at 450 nm due to production of water soluble formazan was measured as a function of time and the absorbance is directly proportional to the number of cells. The experimental concentration for ζ-Stat was 2.5 μM. N=3 experiments were performed for each cell line and mean±SD are plotted.

Compound	WST-1 absorbance at 450 nm, effect (MeWo cells)	inhibition of PKC-ζ (PKC-ζ)	toxicity according to the WST-1 assay [1]
CC(=O)C1=C(O)CCC1=O [ACPD, 2-acetyl-1,3-cyclopentanedione]	did not show a significant effect	about 60%	
O=S(=O)(O)c1cc(O)c2c(S(=O)(=O)O)cc(S(=O)(=O)O)cc2c1 [ζ-Stat, 8-hydroxy-1,3,6-naphthalenetrisulfonic acid]			did not show toxicity
